{"source": "patent US20080200538A1", "about": "“Inhibition of Monocyte Survival, Differentiation, or Proliferation” (The Ohio State University Research Foundation, priority 2005, published 2008)", "key": {"IL-8 [1]": {"system": "IL-8", "assay": "Cytokine expression in LPS-treated monocytes by quantitative PCR", "type": "cell-based", "conditions": "10 ng/ml LPS and 10 μM apigenin", "protocol": "(§1) Expression of IL-1β, IL-8 and TNFα was analyzed by quantitative PCR using lysates from monocytes left untreated, treated with 10 ng/ml of LPS or with LPS and 10 μM of apigenin. Values represent means ±SEM (N=4)."}, "IL-1β [2]": {"system": "IL-1β", "assay": "Cytokine expression in LPS-treated monocytes by quantitative PCR", "type": "cell-based", "conditions": "10 ng/ml LPS and 10 μM apigenin", "protocol": "as §1"}, "TNFα [3]": {"system": "TNFα", "assay": "Cytokine expression in LPS-treated monocytes by quantitative PCR", "type": "cell-based", "conditions": "10 ng/ml LPS and 10 μM apigenin", "protocol": "as §1"}, "LPS stimulated monocytes": {"system": "LPS stimulated monocytes", "assay": "Cell death of LPS-treated monocytes (calcein AM/PI)", "type": "cell-based", "conditions": "monocytes stimulated with LPS, increasing amount of apigenin", "protocol": "To investigate apoptosis, cells were plated at a density of 1×10^6 cells/well. After treatment, cells were collected and washed in PBS. Cells were then incubated in RPMI (no phenol red) and 1 μg/ml calcein AM for 30 min and 5×10−2 ng/ml propidium iodide (PI) for 5 min. Cells were washed twice and resuspended in PBS. Cells were viewed using a fluorescent microscope (Olympus, Melville, N.Y.). At least 200 cells were counted. Cells calcein AM positive (green) in the absence of PI (red) were considered alive while cells undergoing apoptosis are green with red. Number of green cells or green with red cells was counted over total number of cells (green alone and green with red) to express cell survival or apoptotic cell percentage respectively.\nApigenin induces cell death on LPS-treated monocytes. Monocytes were stained with calcein AM and PI as described in Material and Methods to evaluate the percentage of cell death and survival. Monocytes freshly isolated (Fresh), treated for 16 h with 10 ng/ml LPS alone, left untreated (NT) or (A) treated with different doses of apigenin, (B) with LPS and apigenin, or (C) with LPS 1 h prior to the addition of apigenin. Values represent the means ±SEM (N=#, *P<0.05 compared to LPS alone)."}, "Akt": {"system": "Akt", "assay": "Western blot of Akt phosphorylation and total Akt in THP-1 cells", "type": "cell-based, human", "conditions": "THP-1, 50 μM apigenin", "protocol": "FIG. 5. Apigenin affects Akt phosphorylation. THP-1 cells were treated with 50 μM apigenin for different lengths of time. Lysates were separated by SDS-PAGE, transferred and immunoblotted with anti-phospho-Akt (pSer 473), anti-phospho-Akt (pThr 308), total Akt, and â-tubulin antibodies.\nFIG. 6. Apigenin induces the activation of p38 and inactivation of Akt. A. THP-1 cells were treated with 50 μM apigenin for various lengths of time. Lysates were separated by SDS-PAGE, transferred and analyzed by immunoblots with anti-phospho-p38 (pp 38) and anti-total-p38 antibodies. B. […] Lysates were analyzed by immunoblotting with anti-phospho-Akt (pSer 473), anti-phospho-p38 (p-p38), and anti-total-p38 antibodies.\nExtracts from 3×10^6 cells were prepared by incubating cells for 30 min on ice in lysis buffer (50 mM Tris, 10 mM EDTA 0.5% NP-40, 10 mM Na-glycerophosphate, 5 mM Na-pyrophosphate, 50 mM NaF, 1 mM orthovanadate, 1 mM DTT, 0.1 mM PMSF, 2 μg/ml of protease inhibitors: chymostatin, pepstatin, antipain, and leupeptin). Cell lysates were centrifuged (14,000×g for 10 min at 4° C.) and the supernatants were stored for at −70° C. for future analysis. Equal amounts of protein were loaded and separated by SDS-PAGE, transferred onto nitrocellulose membranes and probed with antibodies of interest followed by horseradish peroxidase conjugated secondary antibody and visualized by enhanced chemiluminescence (Amersham, Arlington Heights, Ill.). Phospho-Ser473-Akt, phospho-Thr308-Alt, total AKT, phospho-p38 and total p38 antibodies were obtained from Cell Signaling (Boston, Mass.). â-tubulin antibody was obtained from Upstate (Charlottesville, Va.)."}, "IL-8 [4]": {"system": "IL-8", "assay": "IL-8 release by LPS stimulated monocytes", "type": "cell-based"}, "TNFα [5]": {"system": "TNFα", "assay": "TNFα release by LPS stimulated monocytes", "type": "cell-based"}, "IL-1β [6]": {"system": "IL-1β", "assay": "IL-1β release from LPS-treated monocytes (sandwich ELISA)", "type": "cell-based", "conditions": "LPS stimulated monocytes", "protocol": "Effect of apigenin on IL-1β release. IL-1β released was determined by sandwich ELISA in supernatants of freshly isolated monocytes, or monocytes cultured for 18 h left untreated, treated with 10 ng/ml of LPS or A with different doses of apigenin. B. LPS and different doses of apigenin added at the same time. C. LPS added 1 h prior to the addition of different doses of apigenin. Values represent means ±SEM (N=5, * P<0.05, compared to LPS alone)"}, "caspase-3 [7]": {"system": "caspase-3", "assay": "Caspase-3 activity in LPS-stimulated monocytes (DEVD-AFC)", "type": "cell-based", "protocol": "(§2) For measurements of caspase activity, cells were plated at a density of 1.5×10^6 cells/well. After treatment, cells extracts were prepared as previously described (Doseff, A. I., Baker J. H., Bourgeois T. A. and Wewers M. D. (2003) Interleukin-4-induced zpoptosis entails caspase activation and suppression of extracellular signal-regulated kinase phosphorylation. Am. J. Resp. Cell Mol. Biol., 29, 367-374). Protein extracts were incubated with 20 μM DEVD-AFC to determine caspase-3 activity or LEHD-AFC to determine caspase-9 activity (Enzyme Systems Products, Livermore, Calif.) in a cytobuffer as previously described (Doseff, A. I., Baker J. H., Bourgeois T. A. and Wewers M. D. (2003) Interleukin-4-induced zpoptosis entails caspase activation and suppression of extracellular signal-regulated kinase phosphorylation. Am. J. Resp. Cell Mol. Biol., 29, 367-374). Levels of released AFC were measured using Cytofluor 400 fluorimeter (Filters: excitation 400 nm, emission 508 nm; Perspective Co., Framingham, Mass.).\nApigenin reactivates caspase-3 on LPS-stimulated monocytes. Caspase-3 activity was determined by the DEVD-AFC assay in monocytes freshly isolated (Fresh) or monocytes cultured for 18 h left untreated, treated with 10 ng/m 1 LPS or (A) with different doses of apigenin alone, (B) with LPS and different doses of apigenin or (C) with LPS 1 h prior to the addition of apigenin. […]"}, "caspase-3 [8]": {"system": "caspase-3", "assay": "Caspase-3 activity, DEVD-AFC assay, U937 lysates", "type": "cell-based, human", "conditions": "U937, 50 μM apigenin; remained high even after 24 h", "protocol": "FIG. 3. Apigenin induces caspase activation in monocytic leukemia. THP-1 (top) and U937 (bottom) leukemia cells were treated for various lengths of time with 50 μM apigenin or DMSO (NT). (A and C) Caspase-9 activity was determined by the LEHDAFC assay. (B and D) Caspase-3 activity was determined by the DEVD-AFC assay. Data represents means ±SEM (N=3).\nas §2"}}}
{"smiles": "O=c1cc(-c2ccc(O)cc2)oc2cc(O)cc(O)c12", "note": "[apigenin]", "values": [{"measurement": "expression of IL-8", "setting": "IL-8 [1]", "value": "inhibits the expression"}, {"measurement": "expression of IL-1β", "setting": "IL-1β [2]", "value": "inhibits the expression"}, {"measurement": "expression of TNFα", "setting": "TNFα [3]", "value": "inhibits the expression"}, {"measurement": "death of LPS stimulated monocytes", "setting": "LPS stimulated monocytes", "value": "induces the death of such stimulated monocytes in an apigenin-dose dependent manner"}, {"measurement": "total Akt protein levels", "setting": "Akt; after six hours", "value": "dramatically decreased"}, {"measurement": "Akt pSer473 phosphorylation", "setting": "Akt; during the first hour", "value": "rapid decrease"}, {"measurement": "Akt pThr308 phosphorylation", "setting": "Akt; first six hours", "value": "not significantly affected"}, {"measurement": "release of IL-8", "setting": "IL-8 [4]", "value": "inhibits"}, {"measurement": "release of TNFα", "setting": "TNFα [5]", "value": "inhibits"}, {"measurement": "release of IL-1β", "setting": "IL-1β [6]", "value": "inhibits"}, {"measurement": "caspase-3 activation", "setting": "caspase-3 [7]", "value": "significantly increases"}, {"measurement": "caspase-3 activity, time course", "setting": "caspase-3 [8]", "value": "detected at 9 h"}]}
